ChEMBL document CHEMBL1136640, “The newly synthesized linoleic acid derivative FR236924 induces a long-lasting facilitation of hippocampal neurotransmission by targeting nicotinic acetylcholine receptors” (2003)

Tests used:
[1] = system: Torpedo; assay: Effect on Torpedo nicotinic ACh receptor responses at 0 min determined by measuring percentage of original amplitude
[2] = system: Torpedo; assay: Effect on Torpedo nicotinic ACh receptor responses at 10 min determined by measuring percentage of original amplitude
[3] = system: Rattus norvegicus; assay: Intraperitoneal dose required to facilitate the hippocampal neurotransmission in rat; type: functional, Hippocampus

SMILES | Original amplitude [1] [%] | Original amplitude [2] [%] | Dose [3] [mg/kg]
CCCCCCCCC1CC1CCCCCCCC(=O)O (configuration not stated) | 117 | 124 | 
CCCCCC1CC1CC1CC1CC1CC1CC1CC1CCCC(=O)O (configuration not stated) | 88 | 78 | 
CCCCC/C=C\C/C=C\CCCCCCCC(=O)O | 72 | 175 | 
CCCCC/C=C\C/C=C\C/C=C\C/C=C\CCCC(=O)O | 78 | 139 | 
CC/C=C\C/C=C\C/C=C\CCCCCCCC(=O)O | 77 | 272 | 
CCC1CC1CC1CC1CC1CC1CCCCCCCC(=O)O (configuration not stated) | 87 | 69 | 
CCCCCCCC/C=C\CCCCCCCC(=O)O | 108 | 139 | 
CCCCCC1CC1CC1CC1CCCCCCCC(=O)O (configuration not stated) [FR-236924] | 122 | 156 | 2
